Consider 11 molecules from US9828374B2, “Substituted pyrazino[2,2-a]isoquinoline derivatives” (Hoffmann-La Roche Inc., priority 2014, dated 2017).

The Ki is the dissociation constant of the complex between target and ligand, obtained from inhibition or displacement. The term pKd denotes the Kd on a negative log10 scale, so that one unit is a factor of ten.

One test concerns the target mouse TAAR1 (Mus musculus (Mouse), UniProt Q923Y8). As to the kind of experiment: Radioligand binding assay on mouse TAAR1. As to conditions: for Ki: mouse TAAR1, HEK-293 membranes, first value of the mouse/rat pair. As for the experimental part:
(§1) Construction of TAAR Expression Plasmids and Stably Transfected Cell Lines
(§2) For the construction of expression plasmids the coding sequences of human, rat and mouse TAAR 1 were amplified from genomic DNA essentially as described by Lindemann et al..
(§3) The Expand High Fidelity PCR System (Roche Diagnostics) was used with 1.5 mM Mg^2+ and purified PCR products were cloned into pCR2.1-TOPO cloning vector (Invitrogen) following the instructions of the manufacturer. PCR products were subcloned into the pIRESneo2 vector (BD Clontech, Palo Alto, Calif.), and expression vectors were sequence verified before introduction in cell lines.
(§4) HEK293 cells (ATCC # CRL-1573) were cultured essentially as described by Lindemann et al. (2005). For the generation of stably transfected cell lines HEK293 cells were transfected with the pIRESneo2 expression plasmids containing the TAAR coding sequences (described above) with Lipofectamine 2000 (Invitrogen) according to the instructions of the manufacturer, and 24 hrs post transfection the culture medium was supplemented with 1 mg/ml G418 (Sigma, Buchs, Switzerland). After a culture period of about 10 d clones were isolated, expanded and tested for responsiveness to trace amines (all compounds purchased from Sigma) with the cAMP Biotrak Enzyme immunoassay (EIA) System (Amersham) following the non-acetylation EIA procedure provided by the manufacturer.
Radioligand Binding Assay on Mouse TAAR1
(§5) Membrane Preparation and Radioligand Binding.
(§6) HEK-293 cells stably expressing mouse TAAR1 were maintained at 37° C. and 5% CO2 in DMEM high glucose medium, containing fetal calf serum (10%, heat inactivated for 30 min at 56° C.), penicillin/streptomycin (1%), and 375 μg/ml geneticin (Gibco). Cells were released from culture flasks using trypsin/EDTA, harvested, washed twice with ice-cold PBS (without Ca^2+ and Mg^2+), pelleted at 1,000 rpm for 5 min at 4° C., frozen and stored at −80° C. Frozen pellets were suspended in 20 ml HEPES-NaOH (20 mM, pH 7.4) containing 10 mM EDTA and homogenized with a Polytron (PT 6000, Kinematica) at 14,000 rpm for 20 s. The homogenate was centrifuged at 48,000×g for 30 min at 4° C. Subsequently, the supernatant was removed and discarded, and the pellet resuspended in 20 ml HEPES-NaOH (20 mM, pH 7.4) containing 0.1 mM EDTA using the Polytron (20 s at 14,000 rpm). This procedure was repeated and the final pellet resuspended in HEPES-NaOH containing 0.1 mM EDTA and homogenized using the Polytron. Typically, aliquots of 2 ml membrane portions were stored at −80° C. With each new membrane batch the dissociation constant (Kd) was determined via a saturation curve. […] Nonspecific binding was defined as the amount of ^3[H]-(S)-4-[(ethyl-phenyl-amino)-methyl]-4,5-dihydro-oxazol-2-ylamine bound in the presence of 10 μM unlabeled ligand. All compounds were tested at a broad range of concentrations (10 pM to 10 μM) in duplicates. […] The 96 deep well plates were incubated for 1 hr at 4° C. Incubations were terminated by rapid filtration through Unifilter-96 plates (Packard Instrument Company) and glass filters GF/C (Perkin Elmer) presoaked for 1 hr in polyethylenimine (0.3%) and washed 3 times with 1 ml of cold binding buffer. After addition of 45 μl of Microscint 40 (PerkinElmer) the Unifilter-96 plate was sealed and after 1 hr the radioactivity counted using a TopCount Microplate Scintillation Counter (Packard Instrument Company).

A further test has as its target rat TAAR1 (Rattus norvegicus (Rat), UniProt Q923Y9). As to the kind of experiment: Radioligand binding assay on rat TAAR1. The conditions noted are these: for Ki: rat TAAR1, HEK-293 membranes, second value of the mouse/rat pair. Here is the method: as §1, §2, §3, §4
Radioligand Binding Assay on Rat TAAR1
as §5
as §6, with “rat” for “mouse”, “[H]-(S)-4-[(ethyl-phenyl-amino)-methyl]-4,5-dihydro-oxazol-2-ylamine” for “^3[H]-(S)-4-[(ethyl-phenyl-amino)-methyl]-4,5-dihydro-oxazol-2-ylamine”, “[…]” for “pM”

pKd: −log10 of the molar value.

Sequence of rat TAAR1 (Q923Y9 whole entry): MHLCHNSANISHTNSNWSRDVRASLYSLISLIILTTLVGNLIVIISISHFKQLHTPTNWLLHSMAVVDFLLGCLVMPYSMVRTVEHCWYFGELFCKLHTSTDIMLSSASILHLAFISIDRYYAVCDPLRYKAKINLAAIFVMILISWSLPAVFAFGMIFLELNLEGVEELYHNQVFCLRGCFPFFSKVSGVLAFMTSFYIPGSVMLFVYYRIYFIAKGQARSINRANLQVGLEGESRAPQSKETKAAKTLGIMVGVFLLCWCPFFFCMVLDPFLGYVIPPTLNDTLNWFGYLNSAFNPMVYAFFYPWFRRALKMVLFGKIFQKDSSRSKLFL
Sequence of mouse TAAR1 (Q923Y8 whole entry): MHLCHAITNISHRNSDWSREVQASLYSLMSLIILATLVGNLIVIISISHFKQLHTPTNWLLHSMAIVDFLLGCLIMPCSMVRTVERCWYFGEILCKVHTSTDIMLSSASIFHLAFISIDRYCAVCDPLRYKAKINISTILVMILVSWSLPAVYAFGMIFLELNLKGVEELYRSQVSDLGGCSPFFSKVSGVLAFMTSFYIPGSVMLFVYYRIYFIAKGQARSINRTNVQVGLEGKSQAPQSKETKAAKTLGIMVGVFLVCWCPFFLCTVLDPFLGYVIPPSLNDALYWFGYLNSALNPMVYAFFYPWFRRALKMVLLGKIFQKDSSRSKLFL

Turning to `O=C(NCc1cccc(C(F)(F)F)c1)c1ccc2c(c1)CCN1CCNC[C@@H]21` [Example 43, (11bR)-N-[[3-(trifluoromethyl)phenyl]methyl]-2,3,4,6,7,11b-hexahydro-1H-pyrazino[2,1-a]isoquinoline-9-carboxamide], the values for the inhibition constant (Ki) on mouse TAAR1 and on rat TAAR1 were 0.0301 µM and 0.137 µM, respectively.
For the molecule `c1cnc(Nc2ccc3c(c2)CCN2CCNC[C@@H]32)nc1` [Example 22, (11bR)-N-pyrimidin-2-yl-2,3,4,6,7,11b-hexahydro-1H-pyrazino[2,1-a]isoquinolin-9-amine], the results for the Ki on mouse TAAR1 and at rat TAAR1 were 0.537 µM and 3.92 µM, respectively.
Consider `CC(C)c1cc(C(=O)Nc2ccc3c(c2)CCN2CCNC[C@@H]32)n(C)n1` [Example 39, (R)-N-(2,3,4,6,7,11b-hexahydro-1H-pyrazino[2,1-a]isoquinolin-9-yl)-3-isopropyl-1-methyl-1H-pyrazole-5-carboxamide], for which the Ki on mouse TAAR1 amounted to 1.07 µM; at rat TAAR1, 0.869 µM.
Turning to `CCc1ccc2c(c1)CCN1CCNC[C@@H]21` [Example 27, (11bR)-9-ethyl-2,3,4,6,7,11b-hexahydro-1H-pyrazino[2,1-a]isoquinoline], the Ki on mouse TAAR1 stood at 0.266 µM; at rat TAAR1, 0.288 µM.
As for `O=C(Nc1ccc2c(c1)CCN1CCNC[C@@H]21)c1ccc(Cl)cc1` [Example 3, N-[(11bR)-2,3,4,6,7,11b-hexahydro-1H-pyrazino[2,1-a]isoquinolin-9-yl]-4-chloro-benzamide], the Ki on mouse TAAR1 is 0.0096 µM; at rat TAAR1, 0.0562 µM.
For `Cc1ccc2c(c1)CCN1CCNC[C@@H]21` [Example 28, (11bR)-9-methyl-2,3,4,6,7,11b-hexahydro-1H-pyrazino[2,1-a]isoquinoline], the inhibitory constant (Ki) at mouse TAAR1 came out at 0.29 µM; at rat TAAR1, 0.421 µM.
With `c1ccc2c(c1)CCN1CCNC[C@@H]21` [Example 15, (11bR)-2,3,4,6,7,11b-hexahydro-1H-pyrazino[2,1-a]isoquinoline], the inhibition constant Ki at mouse TAAR1 is 0.0605 µM; on rat TAAR1, 0.248 µM.
For `O=C(Nc1ccc(Cl)nc1)c1ccc2c(c1)CCN1CCNC[C@@H]21` [Example 42, (11bR)-N-(6-chloro-3-pyridyl)-2,3,4,6,7,11b-hexahydro-1H-pyrazino[2,1-a]isoquinoline-9-carboxamide], the results for the Ki at mouse TAAR1 and at rat TAAR1 were 0.0395 µM and 0.682 µM, respectively.
Consider `FC(F)(F)c1cnc(Nc2ccc3c(c2)CCN2CCNC[C@H]32)cn1` [Example 12, (11bS)-N-[5-(trifluoromethyl)pyrazin-2-yl]-2,3,4,6,7,11b-hexahydro-1H-pyrazino[2,1-a]isoquinolin-9-amine], for which the figures for the Ki on mouse TAAR1 and on rat TAAR1 were 0.219 µM and 1.98 µM, respectively.
Turning to `CCN(C[C@H]1COC(N)=N1)c1ccccc1` [^3[H]-(S)-4-[(ethyl-phenyl-amino)-methyl]-4,5-dihydro-oxazol-2-ylamine, reference compound], the pKd at mouse TAAR1 (mouse TAAR1 membranes, saturation curve, usual value, read-out: dissociation constant (Kd) of the radioligand) was about 9.15; at rat TAAR1 (rat TAAR1 membranes, saturation curve, usual value, read-out: dissociation constant (Kd) of the radioligand), about 8.64.
Take `O=C(Nc1ccc2c(c1)CCN1CCNC[C@H]21)c1ccnc(C(F)(F)F)c1` [Example 9, N-[(11bS)-2,3,4,6,7,11b-hexahydro-1H-pyrazino[2,1-a]isoquinolin-9-yl]-2-(trifluoromethyl)pyridine-4-carboxamide]: the results for the inhibitory constant (Ki) at mouse TAAR1 and at rat TAAR1 were 0.0144 µM and 0.0142 µM, respectively.
